From paper PMC13327620, “A Deep‐Red‐Absorbing Osmium(II) Complex as a Photosensitizer for Photodynamic Therapy Inducing Immunogenic Cell Death” (Angewandte Chemie (International Ed. in English), 2026)

What was measured:
[1] = Photostability by UV-vis absorption in PBS with 10% FBS; assay type: physicochemical; conditions: 10% FBS in PBS, 50 μM
Excerpt: Photostability is a crucial parameter for PSs, as it has a significant impact on their phototoxicity. Based on the results of our in vitro phototoxicity studies, and in view of future in vivo experiments, we decided to investigate the stability of Os2 and Ce6 under deep‐red illumination. Therefore, we monitored the UV–vis absorption spectra of Os2 and Ce6 in biological media (10% FBS in PBS, phosphate‐buffered saline) using a 740 nm excitation wavelength for one hour and a 770 nm excitation wavelength for 2 h, with the duration of light exposure kept consistent with in vitro phototoxicity tests. […]
software Fluofit (PicoQuant GmbH, BERLIN, Germany) based on iterative reconvolution using a Levensberg- M arquandt alg oritm, enabling the obtention of multi-exponential profiles (m ainly one or two exponenti als in our cases ).
Compound Os2 and Ce6 were dissolved in biologically relevant media (PBS solution with 10% FBS) at 50 μ M from the stock solution (10 m M in DMSO). The UV -Vi s spectrum of each complex was recorded from 300 nm to 900 nm at 10- or 20- minutes intervals using BioTek Cytation 5 Cell Imaging Multimode Reader (Agilent […]
The hydrodynamic diameter was determined using dynamic light scattering (DLS, Malvern ZetaSizer Nano ZS) at 25 ℃ . PBS with 10% FBS solutions were filtered through a 0.22 µM membrane before use. […]

[2] = system: HMGB‐1; test: Immunofluorescence staining of HMGB-1 (release) in CT26 cells; assay type: cell-based, mouse; conditions: CT26, compounds at IC50, illumination at 740 and 770 nm
Protocol: (§1) Scientific, Catalog no.15 5411) at a d ensity of 8,00 0 cells p er well and cultu red fo r 24 h at 37 °C with 5 % CO2. T he cells wer e then treated with a solution of the compounds at a concentration corresponding to the IC50 for 4 h. After refreshing the medium, cells were subjected to irradiation and incubated for an additional 12 h. Subsequently, the cells were fix ed with 4% paraformaldehyde and immunostained with Anti- Calreticulin antibody (Abcam, Catalog no. ab2907) diluted 1/1000 at 4 °C overnight. Cells were then washed three times with PBS, treated with Goat Anti- Rabbit IgG H&L (Alexa […]
(§2) temperature in the dark, washed in PBS and treat ed with 10 µg/mL Hoechst for 15 min.
(§3) After a final wash, cells were analyzed by confocal microscopy as det ailed above.
(§4) Immunofluorescence st aining of HMGB-1
(§5) CT26 or MCA205 cells were seeded in Lab -Te k ® Chambered Coverglass System (Thermo Fisher Scientific, Catalog no.155411) at a density of 8,000 cells per well and cultured for 24 h at 37 °C with 5% CO2. The cells were then treated with a solution of the compounds at a concentration corresponding to the IC50 for 4 h. After refreshing the medium, cells were subjected to irradiation and incubated for an additional 12 h.
Subsequently, the cells were fixed with 4% paraformaldehyde, perm eabilized with 0.2% Triton X-100 and immunostained using anti-HMGB1 antibody [EPR3507] […]

[3] = system: HMGB‐1; test: Immunofluorescence staining of HMGB-1 (release) in MCA205 cells; assay type: cell-based, mouse; conditions: MCA205, PS at IC50, illumination at 740 nm
Protocol: We then used the corresponding IC50 values of each PS to evaluate their in vitro ICD induction on MCA205 cells. […] As a result, we chose Ce6 as the positive control for our subsequent in vivo tests on MCA205 cells.
as §1, §2, §3, §4
as §5, with “After refreshing the medium, cells were subjected to irradiation and incubated for an additional 12 h.” left out

[4] = system: MCA205 cells; test: Annexin V-FITC/propidium iodide (AV/PI) cell viability assay by flow cytometry; assay type: cell-based, mouse; conditions: MCA205, 740 nm LED light illumination
Excerpt: Regarding the optimal dose of each drug for in vivo vaccination, we continued to follow the same standards as with CT26‐luc cells, using the concentration of each drug that results in approximately 5% of live cells as the in vivo dose. The testing method remained the same, using the AV/PI dual staining assay. Negative controls still included the untreated group (direct injection of PBS solution) and the non‐ICD inducer Cisplatin. Based on the in vitro HMGB‐1 release results, Ce6 was maintained as the positive control. For a more comprehensive comparison, we also added the platinum‐based chemotherapeutic agent Oxaliplatin as a non‐PS ICD inducer, serving as an additional positive control.
As the drug concentration increased, the cells gradually shifted to dying (Q3, Annexin V^+/PI^−) or dead (Q2, Annexin V^+/PI^+ and Q1, Annexin V^−/PI^+) state. For MCA205 cells, the concentrations corresponding to approximately 5% cell survival for each drug were 500 µM Cisplatin and 1400 µM Oxaliplatin in the dark, 5.5 µM Ce6 and 3 µM Os2 under 740 nm LED light illumination. […]
incubated for 24 h. Cells were then treat ed with the determined IC50 of complexes and irradiated or kept in the dark. Supernatants were collected 12 h post-t reatm ent, and the extracellular ATP content was measured with Adenosine 5′ -triphosphate (ATP) Bioluminescent Assay Kit (Sigma-Aldrich) according tomanufacturer ’s ins truction.
Cell viability assay f o r in vivo by flow cytometry
CT26-luc or MCA205 cells were seeded in 6-well plates at a density of 1 ×1 05 cells per well and cultured for 24 h at 37 °C with 5% CO 2. The medium was replaced by various concentrations of the compound dilutions in fresh medium.For Ce6 and Os2, after 4 h incubation in the dark, the medium w as r efr eshed and the plates wer e illuminated with a LUMOS-BIO photoreactor (Atlas Photonics), followed by an additional 20- h incubation in the dark. […]
556419) and PI (BD Biosciences, Catalog no.51- 66211E). CT26- luc cells were analyzed by flow cytometry (Beckm an Coulter Life Sciences, CytoFLEX LX Flow Cytometer). […]

## C=Cc1c(C)c2cc3nc(c(CC(=O)O)c4[nH]c(cc5nc(cc1[nH]2)C(C)=C5CC)c(C)c4C(=O)O)[C@@H](CCC(=O)O)[C@@H]3C [Ce6, chlorin e6]
[1]; 740 nm excitation, 1 h, 12.60 J/cm2
  Photostability (UV-vis absorption spectrum): decreased by nearly half after 50 min
[1]; 770 nm excitation, 2 h, 15.30 J/cm2
  Photostability (UV-vis absorption spectrum): did not change
[2]
  HMGB‐1 release: a minority
[3]
  HMGB‐1 release: significantly promoted
[4]
  Concentration corresponding to approximately 5% cell survival: 5.5 µM
